Like-named read-outs stand apart in the source and are kept apart here.
Tests used:
[1] = finding of effectiveness in retarding and reducing cachexia; type: in vivo; details: benzaldehyde and/or 4,6-O-benzylidene-D-glucose
[2] = Clinical Example 1: treatment of cachexia patient with 4,6-O-benzylidene-D-glucose; type: in vivo, human; details: 1,200 mg i.v. once a day; for body weight: before: 29 kg
Description: Patient
Diagnosis: Cancer in right ovary, Cachexia caused by metastasis of cancer to peritoneum and liver
Although the adbomen of the patient was opened by an abdominal operation, it was impossible to remove the diseased portions and thus the abdomen was closed without extracting the affected portions. The patient could eat very little and thus was supplied with nutritive substances by instillations every day. The body weight of the patient decreased to 29 kg, and they were confined to bed.

rats = test: acute toxicity (LD50) by subcutaneous injection of rats; details: acute toxicity, rats, subcutaneous injection
[3] = Japanese Patent Laid-Open 108027/1977 and 70428/1979; cited from earlier work
in vivo = details: rat, sc
[4] = human, in vivo
Description: (§1) Chemotherapy was tried to administering mitomycin, 5-fluorouracil and cytarabine. […] For these reasons, chemotherapy was stopped after three weeks.

[5] = prior chemotherapy of the patient of Clinical Example 1, adverse reactions; details: chemotherapy with mitomycin, 5-fluorouracil and cytarabine together, stopped after three weeks
Description: as §1

[6] = acute toxicity (LD50) by subcutaneous injection of rats; details: rat, in vivo, sc
[7] = Clinical Example 3: treatment of cachexia patient with benzaldehyde; type: in vivo, human; details: for Precipitation of Blood: before dosage 78; for Glutamic Acid Pyruvic Acid Transaminase (GPT): before dosage 98; for Glutamic Acid Oxaloacetic Acid Transaminase (GOT): before dosage 120; for α-fetoprotein (AFP): before dosage 20,000
Description: Patient
Diagnosis: Symptoms of cachexia due to lung cancer (the type of cancerous tissue not being specified)
Through CT scan and echo examinations, a total of four tumors were observed, one having the dimensions of 7 cm×7 cm and each of the other three metastasized tumors having a diameter of about 1 cm. Severe symptoms due to cachexia were found.
First Day: The symptoms due to cachexia were growing worse.

[8] = 25 mg tablets, 5 tablets 4 times a day, three months

With `OC1O[C@@H]2COC(c3ccccc3)O[C@H]2[C@H](O)[C@H]1O` (stereo partly drawn) [4,6-O-Benzylidene-D-glucose, 4,6-O-benzylidene-D-glucose] the effect on cachexia [1] was “effective in retarding and reducing cachexia”, the nausea ([2]; eighth day) was “Nausea disappeared” and the food intake ([2]; eighth day, before: could eat very little) was “the patient could take meals”. The body weight ([2]; eighty-fifth day) was 35 kg, the “cancer in other portions” value ([2]; fifty-sixth day) was “No change was observed” and the “cancer of the liver (left)” value ([2]; fifty-sixth day) was “slightly reduced”. The capability of work ([2]; fifty-sixth day) was “capable of doing light work”, the symptoms of cachexia ([2]; fifty-sixth day) was “disappeared completely” and the body weight ([2]; fifty-sixth day) was 31 kg. The mobility ([2]; nineteenth day, before: confined to bed) was “The patient could sit up in bed”, the cachexia symptoms ([2]; thirtieth day) was “cachexia symptoms were alleviated” and the mobility ([2]; thirtieth day) was “the patient could walk”. The “dimensions of the tumor” value ([2]; thirtieth day, CT scan) was “the dimensions of the tumor had not been reduced”, the “toxicity” value (rats) was “extremely low toxicities” and the carcinostatic function [3] was “exhibit carcinostatic functions”. It also gave an LD50 (in vivo) of 4000 mg/kg.

For `O=c1[nH]cc(F)c(=O)[nH]1` [5-fluorouracil], the adverse reactions [4] was “intensive adverse reactions, such as anorexia, nausea and Leukopenia” and the cachexia under chemotherapy [5] was “the cachexia grew worse and worse”.

For `O=Cc1ccccc1` [Benzaldehyde], the effect on cachexia [1] was “effective in retarding and reducing cachexia”, the LD50 [6] was 5000 mg/kg and the “toxicity” value (rats) was “extremely low toxicities”. For the same compound, the carcinostatic function [3] was “exhibit carcinostatic functions”, the appetite ([7]; 25 mg benzaldehyde tablets, 5 tablets 4 times a day, one month) was “the patient recovered their appetite” and the “values of AFP, GOT and GPT” value ([7]; 25 mg tablets, 5 tablets 4 times a day, monthly) was “lowered favorably every month unitl they reached normal levels”. The “body weight” value [7, 8] was “began to increase”, the “symptoms due to cachexia” value [7, 8] was “Almost all of the symptoms due to cachexia disappeared” and the body weight ([7]; one month dosage, before dosage 46) was 46 kg. For the same compound, the “Precipitation of Blood” value ([7]; one month dosage) was 60, the “Glutamic Acid Pyruvic Acid Transaminase (GPT)” value ([7]; one month dosage) was 70 and the “Glutamic Acid Oxaloacetic Acid Transaminase (GOT)” value ([7]; one month dosage) was 87. For the same compound, the “α-fetoprotein (AFP)” value ([7]; one month dosage) was 15,000 ng/ml, the body weight ([7]; three month dosage, before dosage 46) was 47 kg and the “Precipitation of Blood” value ([7]; three month dosage) was 40. The “Glutamic Acid Pyruvic Acid Transaminase (GPT)” value ([7]; three month dosage) was 35, the “Glutamic Acid Oxaloacetic Acid Transaminase (GOT)” value ([7]; three month dosage) was 38 and the “α-fetoprotein (AFP)” value ([7]; three month dosage) was 2,200 ng/ml. For the same compound, the body weight ([7]; two month dosage, before dosage 46) was 46 kg, the “Precipitation of Blood” value ([7]; two month dosage) was 48 and the “Glutamic Acid Pyruvic Acid Transaminase (GPT)” value ([7]; two month dosage) was 40. The “Glutamic Acid Oxaloacetic Acid Transaminase (GOT)” value ([7]; two month dosage) was 72 and the “α-fetoprotein (AFP)” value ([7]; two month dosage) was 7,700 ng/ml.

For `Nc1ccn([C@@H]2O[C@H](CO)[C@@H](O)[C@@H]2O)c(=O)n1` [cytarabine], the adverse reactions [5] was “intensive adverse reactions, such as anorexia, nausea and Leukopenia” and the cachexia under chemotherapy [5] was “the cachexia grew worse and worse”.

For `CO[C@@]12[C@H](COC(N)=O)C3=C(C(=O)C(C)=C(N)C3=O)N1C[C@@H]1N[C@@H]12` [mitomycin], the adverse reactions [5] was “intensive adverse reactions, such as anorexia, nausea and Leukopenia” and the cachexia under chemotherapy [5] was “the cachexia grew worse and worse”.
